System: MIA PaCa-2 cells
Assay: Bru-seq analysis for nascent RNA synthesis (log2FC of genes, GSEA gene sets)
Format: cell-based, human
Details: 4 h
[1] = GO_NUCLEAR_NUCLEOSOME, upregulated
[2] = GO_ORGANIC_HYDROXY_COMPOUND_BIOSYNTHETIC_PROCESS, upregulated
[3] = GO_PROTEIN_DNA_COMPLEX, upregulated
[4] = GO_REGULATION_OF_ENDOPLASMIC_RETICULUM_STRESS_INDUCED_INTRINSIC_APOPTOTIC_SIGNALING_PATHWAY, upregulated
[5] = GO_REGULATION_OF_STEROID_BIOSYNTHETIC_PROCESS, upregulated
[6] = GO_REGULATION_OF_STEROID_METABOLIC_PROCESS, upregulated
[7] = GO_RIBOSOMAL_SUBUNIT, upregulated
[8] = GO_STEROID_BIOSYNTHETIC_PROCESS, upregulated
[9] = GO_STEROID_METABOLIC_PROCESS, upregulated
[10] = GO_STEROL_BIOSYNTHETIC_PROCESS, upregulated
[11] = GO_STEROL_METABOLIC_PROCESS, upregulated
[12] = GO_STRUCTURAL_CONSTITUENT_OF_RIBOSOME, upregulated
[13] = HAMAI_APOPTOSIS_VIA_TRAIL_UP, C2, downregulated
[14] = HUTTMANN_B_CLL_POOR_SURVIVAL_DN, C2, downregulated
[15] = KEGG_ACUTE_MYELOID_LEUKEMIA, upregulated
[16] = KEGG_ADIPOCYTOKINE_SIGNALING_PATHWAY, upregulated
[17] = KEGG_BIOSYNTHESIS_OF_UNSATURATED_FATTY_ACIDS, upregulated
[18] = KEGG_CARDIAC_MUSCLE_CONTRACTION, upregulated
[19] = KEGG_ENDOMETRIAL_CANCER, upregulated
[20] = KEGG_FC_EPSILON_RI_SIGNALING_PATHWAY, upregulated
[21] = KEGG_GLYCOLYSIS_GLUCONEOGENESIS, upregulated
[22] = KEGG_INSULIN_SIGNALING_PATHWAY, upregulated
[23] = KEGG_LONG_TERM_DEPRESSION, upregulated
[24] = KEGG_MTOR_SIGNALING_PATHWAY, upregulated
[25] = KEGG_NON_SMALL_CELL_LUNG_CANCER, upregulated
[26] = KEGG_OXIDATIVE_PHOSPHORYLATION, upregulated
[27] = KEGG_PARKINSONS_DISEASE, upregulated
[28] = KEGG_PORPHYRIN_AND_CHLOROPHYLL_METABOLISM, upregulated
[29] = KEGG_PPAR_SIGNALING_PATHWAY, upregulated
[30] = KEGG_PROGESTERONE_MEDIATED_OOCYTE_MATURATION, upregulated
[31] = KEGG_PROSTATE_CANCER, upregulated
[32] = KEGG_RENAL_CELL_CARCINOMA, upregulated
[33] = KEGG_SNARE_INTERACTIONS_IN_VESICULAR_TRANSPORT, upregulated
[34] = KEGG_SYSTEMIC_LUPUS_ERYTHEMATOSUS, upregulated
[35] = KEGG_VEGF_SIGNALING_PATHWAY, upregulated
[36] = KRCTCNNNNMANAGC_UNKNOWN, TFBT, upregulated
[37] = MILI_PSEUDOPODIA_HAPTOTAXIS_UP, C2, downregulated
[38] = NIKOLSKY_BREAST_CANCER_8Q12_Q22_AMPLICON, C2, downregulated

Cc1cc(NC(=O)c2cnc(N3CCNCC3)cn2)c2ncccc2c1 [J28, N-(6-methylquinolin-8-yl)-5-(piperazin-1-yl)pyrazine-2-carboxamide]
ES [1]: 0.745 | NES [1]: 2.088 | ES [2]: 0.503 | NES [2]: 1.959 | ES [3]: 0.554 | NES [3]: 2.251 | ES [4]: 0.678 | NES [4]: 2.024 | ES [5]: 0.710 | NES [5]: 2.097 | ES [6]: 0.615 | NES [6]: 2.031 | ES [7]: 0.469 | NES [7]: 1.976 | ES [8]: 0.605 | NES [8]: 2.176 | ES [9]: 0.523 | NES [9]: 2.100 | ES [10]: 0.757 | NES [10]: 2.428 | ES [11]: 0.651 | NES [11]: 2.434 | ES [12]: 0.452 | NES [12]: 1.990 | log2FC (GPR135, downregulated protein-coding gene): −1.08 | log2FC (GRIN2C, downregulated protein-coding gene): −0.95 | ES [13]: −0.508 | NES [13]: −2.848 | ES (HEB_Q6, TFBT, upregulated): 0.415 | NES (HEB_Q6, TFBT, upregulated): 1.688 | log2FC (HRH4, downregulated protein-coding gene): −0.86 | ES [14]: −0.605 | NES [14]: −2.158 | log2FC (IFT80, downregulated protein-coding gene): −1.12 | ES [15]: 0.524 | NES [15]: 1.872 | ES [16]: 0.429 | NES [16]: 1.493 | ES [17]: 0.555 | NES [17]: 1.531 | ES [18]: 0.424 | NES [18]: 1.386 | ES [19]: 0.437 | NES [19]: 1.492 | ES [20]: 0.442 | NES [20]: 1.464 | ES [21]: 0.478 | NES [21]: 1.563 | ES [22]: 0.349 | NES [22]: 1.403 | ES [23]: 0.461 | NES [23]: 1.491 | ES (KEGG_LYSOSOME, upregulated): 0.494 | NES (KEGG_LYSOSOME, upregulated): 1.958 | ES [24]: 0.447 | NES [24]: 1.469 | ES [25]: 0.477 | NES [25]: 1.610 | ES [26]: 0.387 | NES [26]: 1.544 | ES [27]: 0.358 | NES [27]: 1.404 | ES (KEGG_PEROXISOME, upregulated): 0.443 | NES (KEGG_PEROXISOME, upregulated): 1.643 | ES [28]: 0.496 | NES [28]: 1.448 | ES [29]: 0.485 | NES [29]: 1.573 | ES [30]: 0.434 | NES [30]: 1.602 | ES [31]: 0.402 | NES [31]: 1.527 | ES [32]: 0.393 | NES [32]: 1.392 | ES (KEGG_RIBOSOME, upregulated): 0.534 | NES (KEGG_RIBOSOME, upregulated): 2.148 | ES [33]: 0.503 | NES [33]: 1.647 | ES [34]: 0.661 | NES [34]: 2.271 | ES [35]: 0.501 | NES [35]: 1.705 | log2FC (KLF10, downregulated protein-coding gene): −0.88 | ES [36]: 0.784 | NES [36]: 2.441 | log2FC (LINC01337, downregulated noncoding gene): −1.06 | log2FC (LINC01764, downregulated noncoding gene): −1.03 | log2FC (LINC01930, downregulated noncoding gene): −1.08 | log2FC (MALAT1, downregulated noncoding gene): −1.19 | ES (MAZR_01, TFBT, upregulated): 0.380 | NES (MAZR_01, TFBT, upregulated): 1.598 | ES [37]: −0.420 | NES [37]: −2.372 | log2FC (MTND2P28, downregulated noncoding gene): −0.97 | ES (NFE2_01, TFBT, upregulated): 0.387 | NES (NFE2_01, TFBT, upregulated): 1.630 | ES (NFY_Q6_01, TFBT, upregulated): 0.370 | NES (NFY_Q6_01, TFBT, upregulated): 1.617 | ES [38]: −0.499 | NES [38]: −2.099 | ES (NRF2_01, TFBT, upregulated): 0.356 | NES (NRF2_01, TFBT, upregulated): 1.597
